This experiment deals with human CD40 transgenic mice. Kind of experiment: Mouse T cell-dependent humoral immune response (TDAR) model. The experiment is classed as in vivo. The settings on record: 0.3 mpk BIW ip (IgG1 control 1 mg/kg per Table 15); serum ELISA. How it is done:
On day 0 of the experiment, one of the mice in each group was subjected to blood collection followed by intraperitoneal injection. On day 1, each mouse was intraperitoneally injected with 50 μg of KLH (KLH:complete Freund's adjuvant (CFA)=1:1 emulsified immune complex) for immunization. On day 15 of the experiment, each mouse was intraperitoneally injected with 50 μg of KLH (KLH:incomplete Freund's adjuvant (IFA)=1:1 emulsified immune complex) for a second immunization. Each group was intraperitoneally injected twice a week, and blood samples of about 150 μL were collected from the orbital venous plexus on days 7, 14, 21, and 28. Whole blood was left to stand at room temperature for 1-4 h and centrifuged at 7000 rpm at 4° C. for 10 min to separate serum, and the serum was stored at −80° C. before use.
Mouse serum was separated weekly and assayed by ELISA for the anti-KLH specific IgG level.
For orientation: ELISA stands for enzyme-linked immunosorbent assay.

Take “CFZ533: anti-CD40 antagonistic antibody (iscalimab), positive control; variable regions from U.S. Pat. No. 8,277,810B [reference compound]”: the “anti-KLH specific IgG level, Day 7” value is 0.04 ± 0.01; the “anti-KLH specific IgG level, Day 14” value stood at 30.9 ± 10.8; the “anti-KLH specific IgG level, Day 21” value was found to be 845 ± 423; the “anti-KLH specific IgG level, Day 28” value amounted to 3043 ± 1600.

Source of the values: US20250340661A1, “ANTI CD40 ANTIBODY, ANTIGEN BINDING FRAGMENT AND MEDICAL USE THEREOF” (Jiangsu Hengrui Pharmaceuticals Co., Ltd., priority 2021, published 2025).
